# From patent US12252484B2, “Pyrazolopyridine compounds for the treatment of autoimmune disease” (Hoffmann-La Roche Inc., priority 2018, dated 2025)
# Biological target: T1, human TLR9 (Homo sapiens, UniProt Q9NR96)
# T1 sequence (Q9NR96 26-1032): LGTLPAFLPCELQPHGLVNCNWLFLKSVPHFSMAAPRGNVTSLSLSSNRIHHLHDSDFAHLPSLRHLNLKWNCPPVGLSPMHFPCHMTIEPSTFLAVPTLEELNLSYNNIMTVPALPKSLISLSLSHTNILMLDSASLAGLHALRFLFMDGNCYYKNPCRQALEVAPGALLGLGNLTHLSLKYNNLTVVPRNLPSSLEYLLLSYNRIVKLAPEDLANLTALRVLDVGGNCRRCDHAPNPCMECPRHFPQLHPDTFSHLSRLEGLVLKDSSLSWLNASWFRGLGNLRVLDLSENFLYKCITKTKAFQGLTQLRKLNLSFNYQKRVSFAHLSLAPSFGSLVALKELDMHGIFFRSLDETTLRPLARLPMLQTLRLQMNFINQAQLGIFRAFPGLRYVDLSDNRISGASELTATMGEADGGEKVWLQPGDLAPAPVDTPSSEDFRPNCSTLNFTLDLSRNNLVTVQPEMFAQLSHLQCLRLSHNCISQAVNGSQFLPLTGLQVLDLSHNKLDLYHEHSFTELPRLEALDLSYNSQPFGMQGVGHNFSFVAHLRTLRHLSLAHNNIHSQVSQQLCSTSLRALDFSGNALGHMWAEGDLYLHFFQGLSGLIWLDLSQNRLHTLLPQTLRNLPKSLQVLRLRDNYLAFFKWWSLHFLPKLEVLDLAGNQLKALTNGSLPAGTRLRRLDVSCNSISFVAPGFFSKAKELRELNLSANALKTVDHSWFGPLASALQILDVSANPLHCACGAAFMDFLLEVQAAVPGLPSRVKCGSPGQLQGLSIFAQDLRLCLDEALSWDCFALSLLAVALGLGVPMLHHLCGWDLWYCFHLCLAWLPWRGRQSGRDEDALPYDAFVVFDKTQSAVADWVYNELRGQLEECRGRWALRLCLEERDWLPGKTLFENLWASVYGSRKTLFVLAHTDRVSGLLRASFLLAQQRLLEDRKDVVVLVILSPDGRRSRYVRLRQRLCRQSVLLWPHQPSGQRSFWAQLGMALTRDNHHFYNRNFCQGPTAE
# Test: HEK293-Blue-hTLR-9 cells assay (SEAP reporter, ODN2006 stimulation)
# Format: cell-based
# Settings: HEK293-Blue-hTLR-9 cells, ODN2006 ligand, 20 hrs incubation; read-out: TLR9 IC50
# Procedure: The following tests were carried out in order to determine the activity of the compounds of formula (I) in HEK293-Blue-hTLR-7/8/9 cells assay.
# HEK293-Blue-hTLR-9 Cells Assay:
# A stable HEK293-Blue-hTLR-9 cell line was purchased from InvivoGen (Cat. #: hkb-htlr9, San Diego, California, USA). These cells were originally designed for studying the stimulation of human TLR9 by monitoring the activation of NF-κB. A SEAP (secreted embryonic alkaline phosphatase) reporter gene was placed under the control of the IFN-β minimal promoter fused to five NF-κB and AP-1-binding sites. The SEAP was induced by activating NF-κB and AP-1 via stimulating HEK-Blue hTLR9 cells with TLR9 ligands. Therefore the reporter expression was declined by TLR9 antagonist under the stimulation of a ligand, such as ODN2006 (Cat. #: tlrl-2006-1, Invivogen, San Diego, California, USA), for incubation of 20 hrs. The cell culture supernatant SEAP reporter activity was determined using QUANTI-Blue™ kit (Cat. #: rep-qb1, Invivogen, San Diego, California, USA) at a wavelength of 640 nm, a detection medium that turns purple or blue in the presence of alkaline phosphatase.
# HEK293-Blue-hTLR9 cells were incubated at a density of 250,000˜450,000 cells/mL in a volume of 170 μL in a 96-well plate in Dulbecco's Modified Eagle's medium (DMEM) containing 4.5 g/L glucose, 50 U/mL penicillin, […], 2 mM L-glutamine, 10% (v/v) heat-inactivated fetal bovine serum with addition of 20 μL test compound in a serial dilution in the presence of final DMSO at 1% and 10 μL of 20 uM ODN2006 in above DMEM, perform incubation under 37° C. in a CO2 incubator for 20 hrs. Then 20 μL of the supernatant from each well was incubated with 180 μL Quanti-blue substrate solution at 37° C. for 2 hrs and the absorbance was read at 620˜655 nm using a spectrophotometer. The signalling pathway that TLR9 activation leads to downstream NF-κB activation has been widely accepted, and therefore similar reporter assay was modified for evaluating TLR9 antagonist.
row,IC50 [µM],SMILES
1,13,"C[C@@H]1CN(c2ccc(C#N)n3nccc23)C[C@H](C(=O)NC2CCNCC2)O1 [Example 24, (2R,6R)-4-(7-cyanopyrazolo[1,5-a]pyridin-4-yl)-6-methyl-N-(4-piperidyl)morpholine-2-carboxamide]"
2,11,"C[C@@H]1CN(c2ccc(C#N)n3nccc23)C[C@H](C(=O)NC2CC3CCC2CN3C)O1 (stereo partly drawn) [Example 34, (2R,6R)-4-(7-cyanopyrazolo[1,5-a]pyridin-4-yl)-6-methyl-N-(2-methyl-2-azabicyclo[2.2.2]octan-5-yl)morpholine-2-carboxamide]"
3,4.8,"C[C@@H]1CN(c2ccc(C#N)n3nccc23)C[C@H](C(=O)NC2CCCNCC2)O1 (stereo partly drawn) [Example 6, (2R,6R)-N-(azepan-4-yl)-4-(7-cyanopyrazolo[1,5-a]pyridin-4-yl)-6-methyl-morpholine-2-carboxamide]"
4,1.1,"C[C@@H]1CN(c2ccc(C#N)n3nccc23)C[C@H](C(=O)NC2C3CNC[C@@H]32)O1 (stereo partly drawn) [Example 31, Trans-(2R,6R)-N-(3-azabicyclo[3.1.0]hexan-6-yl)-4-(7-cyanopyrazolo[1,5-a]pyridin-4-yl)-6-methyl-morpholine-2-carboxamide]"
5,6.8,"C[C@@H]1CN(c2ccc(C#N)n3nccc23)C[C@H](C(=O)NC2C3CCCC2CNC3)O1 (stereo partly drawn) [Example 37, (2R,6R)-N-(3-azabicyclo[3.3.1]nonan-9-yl)-4-(7-cyanopyrazolo[1,5-a]pyridin-4-yl)-6-methyl-morpholine-2-carboxamide]"
6,15,"C[C@@H]1CN(c2ccc(C#N)n3nccc23)C[C@H](C(=O)NC2CCN(C)CC2)O1 [Example 1, (2R,6R)-4-(7-cyanopyrazolo[1,5-a]pyridin-4-yl)-6-methyl-N-(1-methyl-4-piperidyl)morpholine-2-carboxamide]"
7,58,"C[C@@H]1CN(c2ccc(C#N)n3nccc23)C[C@H](C(=O)NCC2CN(C)CCO2)O1 (stereo partly drawn) [Example 7, (2R,6R)-4-(7-cyanopyrazolo[1,5-a]pyridin-4-yl)-6-methyl-N-[(4-methylmorpholin-2-yl)methyl]morpholine-2-carboxamide]"
8,9.7,"C[C@@H]1CN(c2ccc(C#N)n3nccc23)C[C@H](C(=O)NC2CN(C)CC23CC3)O1 (stereo partly drawn) [Example 32, (2R,6R)-4-(7-cyanopyrazolo[1,5-a]pyridin-4-yl)-6-methyl-N-(5-methyl-5-azaspiro[2.4]heptan-7-yl)morpholine-2-carboxamide]"
9,18,"C[C@@H]1CN(c2ccc(C#N)n3nccc23)C[C@H](C(=O)NC2CC3COCC(C2)N3)O1 (stereo partly drawn) [Example 22, Endo-(2R,6R)-4-(7-cyanopyrazolo[1,5-a]pyridin-4-yl)-6-methyl-N-[3-oxa-9-azabicyclo[3.3.1]nonan-7-yl]morpholine-2-carboxamide]"

# The remaining lines, values behind:
row,SMILES,IC50 [µM]
1,"C[C@H]1C[C@@H](NCC#N)CN(c2ccc(C#N)n3nccc23)C1 [Example 46, 4-[(3R,5S)-3-(cyanomethylamino)-5-methyl-1-piperidyl]pyrazolo[1,5-a]pyridine-7-carbonitrile]",31
2,"CCC(O)CNC(=O)[C@H]1CN(c2ccc(C#N)n3nccc23)C[C@@H](C)O1 (stereo partly drawn) [Example 13, (2R,6R)-4-(7-cyanopyrazolo[1,5-a]pyridin-4-yl)-N-(2-hydroxybutyl)-6-methyl-morpholine-2-carboxamide]",> 100
3,"C[C@@H]1CN(c2ccc(C#N)n3nccc23)C[C@H](C(=O)Nc2ccc(C(=O)N3CCNCC3)cc2)O1 [Example 42, (2R,6R)-4-(7-cyanopyrazolo[1,5-a]pyridin-4-yl)-6-methyl-N-[4-(piperazine-1-carbonyl)phenyl]morpholine-2-carboxamide]",1.8
4,"C[C@@H]1CN(c2ccc(C#N)n3nccc23)C[C@H](C(=O)NC2C3CNCC2COC3)O1 (stereo partly drawn) [Example 27, (2R,6R)-4-(7-cyanopyrazolo[1,5-a]pyridin-4-yl)-6-methyl-N-(3-oxa-7-azabicyclo[3.3.1]nonan-9-yl)morpholine-2-carboxamide]",6.8
5,"C[C@@H]1CN(c2ccc(C#N)n3nccc23)C[C@H](C(=O)NC(C)(C)CO)O1 [Example 16, (2R,6R)-4-(7-cyanopyrazolo[1,5-a]pyridin-4-yl)-N-(2-hydroxy-1,1-dimethyl-ethyl)-6-methyl-morpholine-2-carboxamide]",> 100
6,"C[C@@H]1CN(c2ccc(C#N)n3nccc23)C[C@H](C(=O)NC2(C)CCNCC2)O1 [Example 19, (2R,6R)-4-(7-cyanopyrazolo[1,5-a]pyridin-4-yl)-6-methyl-N-(4-methyl-4-piperidyl)morpholine-2-carboxamide]",16
7,"C[C@@H]1CN(c2ccc(C#N)n3ncc(F)c23)C[C@H](C(=O)NC2CCN(C)CC2)O1 [Example 47, (2R,6R)-4-(7-cyano-3-fluoro-pyrazolo[1,5-a]pyridin-4-yl)-6-methyl-N-(1-methyl-4-piperidyl)morpholine-2-carboxamide]",14
8,"CCC(C)(C)NC(=O)[C@H]1CN(c2ccc(C#N)n3nccc23)C[C@@H](C)O1 [Example 17, (2R,6R)-4-(7-cyanopyrazolo[1,5-a]pyridin-4-yl)-N-(1,1-dimethylpropyl)-6-methyl-morpholine-2-carboxamide]",33
9,"C[C@@H]1CN(c2ccc(C#N)n3nccc23)C[C@H](C(=O)NCC2CNCC2(F)F)O1 (stereo partly drawn) [Example 18, (2R,6R)-4-(7-cyanopyrazolo[1,5-a]pyridin-4-yl)-N-[(4,4-difluoropyrrolidin-3-yl)methyl]-6-methyl-morpholine-2-carboxamide]",> 100
